Data: US20150018380A1, “Methods of Screening for Activation Deaminase Inhibitors Through Nuclear Import Inhibitors” (University of Rochester, priority 2012, published 2015)
Entries after “also recorded” stand apart in the source; their conditions may differ. Like-named read-outs stand apart in the source and are kept apart here. One block for each compound: values may come before it.

What was measured:
AID = target: T1, AID (Homo sapiens, UniProt Q9GZX7); assay: AID-EGFP-HeLa HCS assay LOPAC screen for inhibitors of AID nuclear import; type: cell-based
T1 construct: expressed in transfected cells; host or cells: HeLa S3 (lentiviral transduction, pLVTHM, EF1-alpha promoter)
Protocol: The LOPAC screen was performed using 20 μM of each compound in duplicate with a 3-hour incubation followed by LMB treatment.
Maximum values, set to 100% corresponds to conditions of DMSO treated cells. Minimum values, set approximately to 0%, corresponds to conditions of only 200 ng/mL LMB treatment.

glucocorticoid receptor = details: prior screen, cited from earlier work
AID-EGFP [1] = assay: LMB / Ratjadone A response of AID-EGFP in stable HeLa AID-EGFP cells; type: cell-based, human; details: for AID-EGFP localization / nuclear retention: 100 ng/ml for 180 min
Source text: HCS assay development involves the selection of the most appropriate cellular model (Dudgeon et al., 2010, J. Biomol. Screen, 15: 766-782; Nickischer et al., 2006, Methods Enzymol, 414: 389-418; Williams et al., 2006, Methods Enzymol, 414: 364-89). In this regard, AID shuttling is not specific to B cells, making it possible to use a variety of cell types to study AID structure and function (Okazaki et al., 2002, Nature, 416: 340-5; Yoshikawa et al., 2002 Science, 296: 2033-6). However, the ability of LMB to induce quantitative AID nuclear retention was more uniform in HeLa cells (a finding has been independently confirmed by comparing the AID responses to LMB in transiently transfected HeLa, HEK293T, U2OS, A549, CaCo2, HepG2 and CHO cells). […] Consequently, AID-EGFP was subcloned from a pIRES vector into the lentiviral vector pLVTHM (Addgene) using the EF1-α promoter to drive moderate to low level expression. pLV-AID-EGFP psuedotyped virus was transduced into HeLa S3 cells (ATCC) that were live-cell flow sorted to obtain a homogenous population of fluorescent cells. Subcloning of a cell line was not thought to be necessary given the ability to threshold fluorescence in individual cells during high content screening. These cells have been maintained in culture with little or no loss of fluorescence for 2 months. HeLa AID-EGFP cells plated into 384-well plates at varying cell densities (1,250 to 10,000 cells per well) were simultaneously fixed with formaldehyde and counter stained with Hoechst and then imaged using both the IXU Ultra and ArrayScan VTI platforms with 10× and 20× objectives. Image quantification was performed with the multi-wavelength cell scoring (MWCS) & translocation enhanced (TE) image analysis modules and the molecular translocation (MT) image algorithm for the IXU Ultra and ArrayScan VTI, respectively. Based on image acquisition, 2,500 cells per well was determined ideal for either platform regardless of the objective. […] To establish the LMB response within the context of an HCS system and assess the assay parameters, cells were treated in 384-well format with varying doses (0.2 to 200 ng/ml) of either LMB or Ratjadone A (chemically related to LMB) for varying durations up to 200 min. […] There was a 4.5-fold difference between the nuclear to cytoplasmic (N/C) fluorescence ratio of LMB-treated cells and cells only treated with the solvent for LMB (0.5% methanol).
For the LOPAC high content screen (HCS), 2,500 AID-EGFP-HeLa cells were cultured per well on a 384-well plate. Cells were seeded and cultured overnight. Cells were exposed to 20 μM of test compound for 3 hours, followed by a 200 ng/mL LMB treatment for 3 hours. Experiments were run in duplicate. […]

AID-EGFP [2] = assay: LMB response in HEK293T cells transiently co-transfected with AID-EGFP and mCherry-H1: AID; type: cell-based, human
Protocol: (§1) HEK293T cells in 40 μl were plated robotically into 384-well plates using a Multi-Drop (ThermoScientific) such that in 24 hours the cell density is approximately 60% confluency. EGFP-AID and mCherry-H1 plasmids were mixed at a 1:1 molar ratio in Turbofect reagent as per the manufacture's protocol (Fermentas) and dispensed from a trough into the 384-well HEK293T cell cultures with a Perkin Elmer Janus robot liquid handling system. Each well received 25 ng of total plasmid DNA and uniform dispersal of the transfection mixture was ensured by placing the plates on the Perkin Elmer plate mixer at the highest speed setting for 30 sec. Due to the small culture volume, there was no effect on cell attachment to the plates but was critical for uniform transfection. Ranges of both EGFP-AID: mCherry-H1 plasmid ratios and amount of total plasmid DNA required for transfection of cells in 384-well format were evaluated. For current plasmid stocks, a 1:1 plasmid ratio gave the most consistent expression of both proteins.
(§2) Co-expression of other counter screen proteins and their response to LMB was evaluated using co-transfected HEK293T cells. […]

histone H1 = assay: LMB response in HEK293T cells transiently co-transfected with AID-EGFP and mCherry-H1: H1; type: cell-based, human; details: LMB treatment
Protocol: as §1, §2

ACF = assay: LMB response in HEK293T cells transiently cotransfected with ACF-EGFP and mCherry-hnRNPA1: ACF; type: cell-based, human; details: LMB treatment; transiently transfected HEK293T
Source text: (§3) Wild type human ACF, hnRNP A1, and TALDO1 cDNAs are obtained from BlueHeron (NM_014576.2, NM_002136.2 and NM_006755.1) cDNAs for ACF and A1 were subcloned into pGEM3 and pIRES, respectively. Criteria used for transient transfection, validating protein expression and determining appropriate N/C ratio baselines are described elsewhere herein. Two counter screens for shuttling proteins, run in parallel enable the identification of AID-selective nuclear import inhibitors.
(§4) Data presented herein show images from HEK293T cells 24 hr after being transiently cotransfected with ACF-EGFP and mCherry-hnRNPA1. FIG. 5G through FIG. 5I show images from a 384-well plate for EGFP-ACF, mCherry-hnRNPA1 and two color composite respectively. […] ACF and hnRNP A1 are selected because they shuttle using different mechanism than AID and because their function in the cell differs markedly from one another and from AID and H1. ACF binds to RNA through RNP domains that comprise three separate and centrally located RNA Recognition Motifs (RRM), required for ACF's function as an editing site recognition cofactor for APOBEC1 mRNA editing activity in the cell nucleus (Hintersteiner et al., 2010, ACS Chem Biol, 5(10): 967-79). […] ACF nuclear import is determined by a unique amino acid motif centrally located and a Cterminal, CRM1-dependent nuclear export signal (Chahine et al., 2009, Pharmacol Rev, 61(3): 358-72).

hnRNP A1 = assay: LMB response in HEK293T cells transiently cotransfected with ACF-EGFP and mCherry-hnRNPA1: hnRNP A1; type: cell-based, human; details: LMB treatment; transiently transfected HEK293T
Source text: as §3, §4

AID-EGFP [3] = assay: LMB response in 293T cells transiently co-transfected with AID-EGFP and mCherry-TALDO1: AID; type: cell-based, human; details: LMB treatment; 293T co-transfected with mCherry-TALDO1
Protocol: (§5) TALDO1 in pIRES was transiently co-transfected with AID-EGFP in 293T cells and fluorescence images taken 24 hours post-transfection. AID-EGFP was predominantly cytoplasmic while mCherry-TALDO1 was predominantly nuclear (FIG. 5P through FIG. 5R). […] It is concluded that co-expression of AID and TALDO1 is achievable and that the proteins have different N/C ratios even though they use the same importins.

TALDO1 = assay: LMB response in 293T cells transiently co-transfected with AID-EGFP and mCherry-TALDO1: TALDO1; type: cell-based, human; details: LMB treatment; 293T co-transfected with AID-EGFP
Protocol: as §5

AID-EGFP [4] = assay: LMB response in HeLa cell line stably expressing AID-EGFP and mCherry-TALDO1: AID; type: cell-based, human; details: LMB treatment; stable HeLa AID-EGFP/mCherry-TALDO1
Source text: (§6) A HeLa cell line stably expressing equivalent levels of AID-EGFP and mCherry-TALDO1 was established by transducing cells with a lentiviral vector encoding AID-EGFP. mCherry-TALDO1 was transfected/selected after the AID-EGFP line was sorted and selected. The cell line was then sorted for the co-expression of both proteins.
(§7) FIG. 23 depicts the expression of AID-EGFP and mCherry-TALDO1, as measured by flow cytometry (FIG. 23A) and western blot (FIG. 23B). […] FIG. 24 depicts the localization of AID-EGFP and mCherry-TALDO1 in control treated cells and LMB treated cells. […] This cell line is then used in a simultaneous primary/counter screen for compounds that selectively alter AID import, while not affecting TALDO1 localization.

mCherry-TALDO1 = assay: LMB response in HeLa cell line stably expressing AID-EGFP and mCherry-TALDO1: TALDO1; type: cell-based, human; details: LMB treatment; stable HeLa AID-EGFP/mCherry-TALDO1
Source text: as §6, §7

CRM1 = CRM1 (Homo sapiens, UniProt O14980); details: cited from earlier work
[5] = 20 μM compound for 3 hours, then 200 ng/mL LMB for 3 hours, AID-EGFP-HeLa cells, 2,500 cells/well, duplicate

T1 sequence (Q9GZX7 whole entry): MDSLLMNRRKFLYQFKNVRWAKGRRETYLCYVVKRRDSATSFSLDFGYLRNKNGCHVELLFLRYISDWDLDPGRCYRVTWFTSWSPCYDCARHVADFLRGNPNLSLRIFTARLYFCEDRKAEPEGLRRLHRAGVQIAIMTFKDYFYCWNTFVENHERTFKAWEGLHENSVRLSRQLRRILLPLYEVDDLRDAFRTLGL
Sequence of CRM1 (O14980 whole entry): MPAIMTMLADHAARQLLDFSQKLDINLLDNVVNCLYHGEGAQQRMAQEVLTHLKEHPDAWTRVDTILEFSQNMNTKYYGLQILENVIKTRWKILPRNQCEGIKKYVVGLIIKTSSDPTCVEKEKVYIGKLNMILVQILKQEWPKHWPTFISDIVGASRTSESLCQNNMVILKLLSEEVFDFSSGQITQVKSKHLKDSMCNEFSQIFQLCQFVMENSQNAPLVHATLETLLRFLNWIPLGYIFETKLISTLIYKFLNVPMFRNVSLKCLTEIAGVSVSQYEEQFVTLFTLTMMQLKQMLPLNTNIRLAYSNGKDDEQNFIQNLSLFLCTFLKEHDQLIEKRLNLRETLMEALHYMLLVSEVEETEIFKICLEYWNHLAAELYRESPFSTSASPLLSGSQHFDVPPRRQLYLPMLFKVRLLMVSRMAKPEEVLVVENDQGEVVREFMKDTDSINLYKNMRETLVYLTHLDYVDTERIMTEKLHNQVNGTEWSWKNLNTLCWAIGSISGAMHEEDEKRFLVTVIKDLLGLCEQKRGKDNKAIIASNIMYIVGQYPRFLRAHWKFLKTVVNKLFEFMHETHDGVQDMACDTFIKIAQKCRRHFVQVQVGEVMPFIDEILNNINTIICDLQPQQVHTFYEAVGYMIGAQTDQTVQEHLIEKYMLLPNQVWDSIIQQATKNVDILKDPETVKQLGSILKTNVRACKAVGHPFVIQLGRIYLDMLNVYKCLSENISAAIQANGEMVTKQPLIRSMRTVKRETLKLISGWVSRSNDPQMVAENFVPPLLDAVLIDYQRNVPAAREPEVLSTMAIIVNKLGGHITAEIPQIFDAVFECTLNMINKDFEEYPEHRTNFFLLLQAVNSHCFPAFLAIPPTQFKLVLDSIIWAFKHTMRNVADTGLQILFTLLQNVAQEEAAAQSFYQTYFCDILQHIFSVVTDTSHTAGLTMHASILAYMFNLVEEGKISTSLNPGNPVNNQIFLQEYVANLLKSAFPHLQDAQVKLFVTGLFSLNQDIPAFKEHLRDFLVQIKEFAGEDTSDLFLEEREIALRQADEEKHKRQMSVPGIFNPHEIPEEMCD

inhibition of AID nuclear import (AID; [5]): greater than 50%
Compound: CC(C)(C)c1ccc(S(=O)(=O)/C=C/C#N)cc1 [Bay 11-7085]
nuclear import of the glucocorticoid receptor (glucocorticoid receptor): inhibit the nuclear import of the glucocorticoid receptor
nuclear import of the glucocorticoid receptor (glucocorticoid receptor; listed as SID 53777289): inhibited nuclear import of the glucocorticoid receptor

Compound: Cc1c2ccncc2c(C)c2c1[nH]c1ccccc12 [Ellipticine]
inhibition at 20 µM (AID; [5]): > 50%

Compound: CCC(=C/[C@H](C)C/C=C/C(C)=C/[C@@H](C)C(=O)[C@@H](C)[C@H](O)[C@@H](C)C/C(C)=C/C(=O)O)/C=C/[C@@H]1OC(=O)C=C[C@@H]1C [LMB, Leptomycin B]
AID-EGFP localization / nuclear retention (AID-EGFP [1]; HeLa AID-EGFP cells): maximal nuclear retention of AID-EGFP; also recorded: nuclear AID-EGFP localization
nuclear localization of AID-EGFP (AID-EGFP [1]; 200 ng/mL LMB for 3 hours, control AID-EGFP-HeLa cells without test compound): approximately 80%
difference in nuclear to cytoplasmic (N/C) fluorescence ratio versus solvent (0.5% methanol) treated cells (AID-EGFP [1]; HeLa AID-EGFP cells, 384-well): 4.5 fold
AID-EGFP nuclear retention (AID-EGFP [2]; 50 ng/ml LMB for 90 min, transiently transfected HEK293T): increased retention in their nuclei; also recorded: selective redistribution of AID-EGFP
effect of increasing LMB above 50 ng/ml on EGFP-AID retained in the nucleus (AID-EGFP [2]; transient system, HEK293T): did not increase the amount of EGFP-AID retained in the nucleus
histone H1 localization (histone H1): remained nuclear; also recorded: do not affect H1 nuclear localization
ACF localization (ACF): nuclear retention of ACF; also recorded: redistribution of ACF-EGFP
hnRNP A1 localization (hnRNP A1): does not respond
AID-EGFP nuclear retention (AID-EGFP [3]): significant nuclear retention of AID-EGFP; also recorded: selective redistribution of AID-EGFP
nuclear mCherry fluorescence due to TALDO1 (TALDO1): did not noticeably affect
AID-EGFP localization (AID-EGFP [4]): shift localization from primarily cytoplasmic to primarily nuclear
mCherry-TALDO1 localization (mCherry-TALDO1): remained nuclear
CRM1-mediated nuclear export of AID (CRM1): inhibited

Compound: Cl.Cl.O=C1c2c(O)ccc(O)c2C(=O)c2c(NCCNCCO)ccc(NCCNCCO)c21 [M6545]
fluorescence interference (false positive hit) (AID; LOPAC screen, 20 μM): false positive autofluorescent

Compound: O=C1c2c(O)ccc(O)c2C(=O)c2c(NCCNCCO)ccc(NCCNCCO)c21 [Mitoxantrone]
inhibition at 20 µM (AID; [5]): > 50%

inhibition at 20 µM (AID; [5]): > 50%
Compound: CN(C)S(=O)(=O)c1ccc2c(c1)/C(=C/c1cc3c([nH]1)CCCC3)C(=O)N2 [SU 6656]

Compound: Ratjadone A
AID-EGFP localization / nuclear retention (AID-EGFP [1]; HeLa AID-EGFP cells): maximal nuclear retention of AID-EGFP; also recorded: nuclear AID-EGFP localization
